The conditions of assay [1]: 0.1 mg sc. in the dorsal neck, after 6 hours, three mice.
For a further assay, the target named is HLA-A(*)02.01 molecules (Homo sapiens, UniProt P04439, D140Y/D185E/D98H/E176V/E277Q/G131W/G231S/I119V/I121R/I166T/I218V/L300P/L318F/N151K/N90K/P208A/P217A/Q86G/Q94H/R138H/R169H/T345S). Briefly: T2-A2 HLA up-regulation test (HLA-A2.1 class I up-regulation, peptide binding). Conditions: positive cut-off 287.116. The protocol:
T2-A2, HLA up-regulation test: binding of the PTR-2 and PTR-4 peptides to HLA-A(*)02.01 molecules was evaluated by means of flow cytometry using T2 cells and the method described by Nijman et al. In this assay, increased stability (the accumulation of HLA-A(*)02.01 molecules on the surface of T2 cells as a consequence of peptide binding) is measured in terms of the increased binding of the antibody directed against HLA-A(*)02.01. Briefly, 10^6 T2 cells in serum-free IMDM were incubated overnight with escalating concentrations (0, 5, 25 and 50 μg/ml) of the PTR peptides in 24-well culture plates at 37° C. in an atmosphere containing 5% CO2. The cells were then washed two times with DPBS, and subsequently incubated for one hour with an anti-HLA-A(*)02.01 (A2.69) specific monoclonal antibody (A2.69, #189HA-1; One Lambda, Inc., Canoga Park, Calif.), using 10 μl of the recommended dilution per 10^6 cells. UPC-10 (Cappel/Organon Teknika Corp) was used as an isotype control. The cells were again washed two times with DPBS, incubated with 100 μl of a 1:100 dilution of fluorescein isothiocyanate (FITC)-labeled anti-mouse IgG (Becton Dickinson Corp.), and analyzed by means of FACScan and single-color analysis. The cells were kept at 4° C. during all of the manipulations unless otherwise stated.
Peptide selection and HLA-A(*)02.01 binding: In order to test the immunogenicity of PTH-rP protein and test possible tolerance of human T cell repertoire specific for it, the PTH-rP molecules were screened with the “Parker” algorithm (BIMAS) in order to predict peptides having high theoretical HLA-A(*)02.01 binding motifs. The functional binding of the two peptides to HLA-A(*)02.01 molecules was tested in vitro by means of the T2 test. PTH-rP peptides with similar or overlapping amino acid homology to the analogue sequences of parathyroid hormone (PTH) were cut out of the screening. The peptide sequences included in the first 36 amino acids (pro-peptide) were ignored although theoretically predicted with higher affinity for the HLA-A(*)02.01 molecule. […]

Marks after values point to notes of the source that are not given here. Bridges are numbered along the chain shown (N, C = ends). Where no end group is shown, it is not given here.

In the case of “Human synthetic thyreocalcitonin: Sigma-Aldrich # T3535, positive control capable to induce hypocalcemia (CGNLSTCMLGTYTQDFNKFHTFPQTAIGVGAP-NH2; disulfide 1-7; ends not checked; UniProt P01258 85-116, looked up)”, the “Serum Ca (hypocalcemia induced by positive control)” value in assay [1] is 0.64 ± 0.645 mmol/L.

Regarding YLSGANLNL [CAP-1], the T2 binding on HLA-A(*)02.01 molecules (peptide 5 μg/ml) is reported as 240^d relative fluorescence values; at HLA-A(*)02.01 molecules (peptide 25 μg/ml), 352^e relative fluorescence values; on HLA-A(*)02.01 molecules (peptide 50 μg/ml), 502.9^f relative fluorescence values.

These data come from patent publication US7378495B2, “PTH-rP related peptide cancer therapeutics” (Pevion Biotech, Ltd., priority 2002, dated 2008).
